We go through one compound from US9512459B2 (priority 2011, dated 2016).

Each structure is given as a SMILES string. Like-named read-outs stand apart in the source and are kept apart here.

The target in assay [1] is Sclerotinia sclerotiorum glucose dehydrogenase (FAD-GDH) Ssc-n1 variant N191S, SEQ ID NO: 1 (Sclerotinia sclerotiorum, UniProt A7F9L2, N191S). The settings on record: 60 ml culture, crude enzyme; glucose 1-40 mM, pH 6.5, DCIP/PMS. As for the experimental part:
(§1) The transformant BL21 (DE3) expressing each mutated enzyme was precultured. The transformant was inoculated in an amount of 1% with respect to 60 ml of a medium A using a 300-ml baffled flask and shake-cultured under conditions involving 20° C., 28 hours, and 125 rpm. After collection of 50 ml of the medium, the bacterial cells were suspended by the addition of BugBuster (registered trademark) protein extraction reagent (Novagen/Merck KGaA) at a ratio of 5 ml per g of wet cells and incubated at room temperature for 15 minutes with gentle shaking. Insoluble fractions were removed by centrifugation (15 Krpm, 4° C., 20 minutes). Then, the obtained supernatant was dialyzed overnight at 4° C. against a 20 mM potassium phosphate buffer solution (pH 6.5). After the completion of the dialysis, the dialysate was centrifuged, and the supernatant was used as a crude enzyme preparation. Insoluble fractions were suspended in a 20 mM potassium phosphate buffer solution (pH 6.5) at a ratio of 1 ml per 2 ml of the suspension containing the insoluble fractions.
(§2) The GDH activity was measured in a DCIP (0.3 mM)/PMS (0.6 mM) system using a 20 mM potassium phosphate buffer solution (pH 6.5) as a buffer solution and glucose (Glc; 1, 2, 4, 10, 20, and 40 mM) and xylose (Xyl; 4 and 40 mM) as substrates.
(§3) The numeric values in the tables represent a mean of several data about specific activity (U/mg) and productivity (U/L) obtained under the same conditions with 40 mM glucose as a substrate. The obtained crude enzyme preparation was used to observe the correlation between the concentration of the substrate (glucose; 1, 2, 4, 10, 20, and 40 mM) and the activity. The obtained Michaelis-Menten constant (Km value) and apparent maximum activity (Vmax) were determined from a saturation curve determined therefrom.

Assay [2] concerns the target Sclerotinia sclerotiorum glucose dehydrogenase (FAD-GDH) Ssc-n4 variant N191K/S529G, SEQ ID NO: 1 (Sclerotinia sclerotiorum, UniProt A7F9L2, N191K/S529G). The settings on record: 60 ml culture, crude enzyme; glucose 1-40 mM, pH 6.5, DCIP/PMS. As for the experimental part: as §1, §2, §3
Assay [3] addresses Sclerotinia sclerotiorum glucose dehydrogenase (FAD-GDH) Ssc-n1 variant N191R, SEQ ID NO: 1 (Sclerotinia sclerotiorum, UniProt A7F9L2, N191R). The following applies: 60 ml culture, crude enzyme; glucose 1-40 mM, pH 6.5, DCIP/PMS. As for the experimental part:
as §1, §2, §3

Assay [4] addresses T1, Aspergillus niger glucose dehydrogenase (FAD-GDH) Ang-n1, wild type, SEQ ID NO: 2 (20 N-terminal residues deleted, Ala21 substituted by Met) (Aspergillus niger, UniProt A2QWL1).
T1 construct: pET30c, E. coli BL21(DE3), crude extract
T1 sequence (A2QWL1 with tags, fused parts or gaps): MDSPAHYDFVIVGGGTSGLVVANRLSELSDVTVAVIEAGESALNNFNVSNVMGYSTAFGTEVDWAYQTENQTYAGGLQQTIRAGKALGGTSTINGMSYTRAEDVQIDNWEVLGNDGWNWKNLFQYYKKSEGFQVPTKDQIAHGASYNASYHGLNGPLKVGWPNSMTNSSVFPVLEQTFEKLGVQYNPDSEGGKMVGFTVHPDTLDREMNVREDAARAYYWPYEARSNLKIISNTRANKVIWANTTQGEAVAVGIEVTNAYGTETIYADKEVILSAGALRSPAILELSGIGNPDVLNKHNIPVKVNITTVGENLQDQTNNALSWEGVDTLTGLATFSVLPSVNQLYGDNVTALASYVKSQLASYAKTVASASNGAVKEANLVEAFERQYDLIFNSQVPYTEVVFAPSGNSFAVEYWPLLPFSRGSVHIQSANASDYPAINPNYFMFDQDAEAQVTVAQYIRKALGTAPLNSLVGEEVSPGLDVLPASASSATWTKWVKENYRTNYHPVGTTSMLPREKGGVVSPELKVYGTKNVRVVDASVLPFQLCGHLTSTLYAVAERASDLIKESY
Description: GDH activity vs glucose, saturation curve (Ang-n1). It is filed as biochemical. The following applies: 60 ml culture, crude enzyme; glucose 1-40 mM, pH 6.5, DCIP/PMS. As for the experimental part:
as §1, with “After the completion of the dialysis, the dialysate was centrifuged, and the supernatant was used as a crude enzyme preparation. Insoluble fractions were suspended in a 20 mM potassium phosphate buffer solution (pH 6.5) at a ratio of 1 ml per 2 ml of the suspension containing the insoluble fractions.” left out
as §2
The numeric values in the tables represent a mean of several data about specific activity (U/mg) and productivity (U/L) obtained under the same conditions with 40 mM glucose as a substrate. […] The obtained Michaelis-Menten constant (Km value) and apparent maximum activity (Vmax) were determined from a saturation curve determined therefrom.

In assay [5] the target is Sclerotinia sclerotiorum glucose dehydrogenase (FAD-GDH) Ssc-n2 variant N191K/S529G, SEQ ID NO: 1 (Sclerotinia sclerotiorum, UniProt A7F9L2, N191K/S529G). The settings on record: crude enzyme, glucose 1-40 mM, pH 6.5, DCIP/PMS. As for the experimental part: as §1
(§4) A small-scale expression system was used for some multiple-mutated enzymes. The transformant BL21 (DE3) expressing each mutated enzyme was precultured, and the transformant was inoculated in an amount of 1 vol % with respect to 3 ml of a medium A. The bacterial cells were shake-cultured at 37° C. for 4 hours and then shake-cultured at 20° C. for 20 hours. After the culture, 2 ml of the medium was collected, then suspended by the addition of 400 μl of BugBuster (registered trademark), and then shaken at room temperature for 15 minutes. Then, the suspension was centrifuged (15000 rpm, 4° C., 20 minutes), and the obtained supernatant was used as a crude enzyme preparation.
as §2, §3

The target in assay [6] is Sclerotinia sclerotiorum glucose dehydrogenase (FAD-GDH) Ssc-n2 variant N191K/S529G/G69H, SEQ ID NO: 1 (Sclerotinia sclerotiorum, UniProt A7F9L2, G69H/N191K/S529G). The settings on record: crude enzyme, glucose 1-40 mM, pH 6.5, DCIP/PMS. As for the experimental part:
as §1, §4, §2, §3

Assay [7] deals with Sclerotinia sclerotiorum glucose dehydrogenase (FAD-GDH) Ssc-n2 variant N191K/S529G/G69A, SEQ ID NO: 1 (Sclerotinia sclerotiorum, UniProt A7F9L2, G69A/N191K/S529G). The following applies: crude enzyme, glucose 1-40 mM, pH 6.5, DCIP/PMS. As for the experimental part:
as §1, §4, §2, §3

For assay [8], the target named is Sclerotinia sclerotiorum glucose dehydrogenase (FAD-GDH) Ssc-n2 variant N191K/S529G/G69N, SEQ ID NO: 1 (Sclerotinia sclerotiorum, UniProt A7F9L2, G69N/N191K/S529G). The following applies: crude enzyme, glucose 1-40 mM, pH 6.5, DCIP/PMS. As for the experimental part: as §1, §4, §2, §3
Assay [9] addresses Sclerotinia sclerotiorum glucose dehydrogenase (FAD-GDH) Ssc-n2 variant N191K/S529G/Y70F, SEQ ID NO: 1 (Sclerotinia sclerotiorum, UniProt A7F9L2, N191K/S529G/Y70F). The following applies: crude enzyme, glucose 1-40 mM, pH 6.5, DCIP/PMS. As for the experimental part:
as §1, §4, §2, §3

The target of assay [10] is Sclerotinia sclerotiorum glucose dehydrogenase (FAD-GDH) Ssc-n1, wild type, SEQ ID NO: 1 (16 N-terminal residues deleted, Ser17 substituted by Met) (Sclerotinia sclerotiorum, UniProt A7F9L2). Put plainly: GDH activity vs glucose, saturation curve (Ssc-n1). The settings on record: crude enzyme, glucose 1-40 mM, pH 6.5, DCIP/PMS. In kind it is biochemical. As for the experimental part:
as §1, §4, §2, §3

In general, Km refers to the concentration of substrate that gives half-maximal velocity.

For `OC[C@H]1OC(O)[C@H](O)[C@@H](O)[C@@H]1O` (stereo partly drawn) [glucose], the Vmax turned out to be 3.7 U/mg protein in assay [1]; 9.2 U/mg protein in assay [2]; 5.6 U/mg protein in assay [3]; 0.2 U/mg protein in assay [4]; 16.9 U/mg protein in assay [5] (3 ml culture); 38.2 U/mg protein in assay [5] (60 ml culture). Moreover, the Vmax in [6] (3 ml culture) is listed as 11.1 U/mg protein; in [6] (60 ml culture) it was 6.9 U/mg protein; in [7] (3 ml culture) it was 15.8 U/mg protein; in assay [7] (60 ml culture), 26.4 U/mg protein; in assay [8] (3 ml culture) it was 11.5 U/mg protein; in assay [8] (60 ml culture), 13.9 U/mg protein. The Vmax in assay [9] (3 ml culture) worked out at 9.0 U/mg protein; in assay [9] (60 ml culture), 23.8 U/mg protein; in assay [10] (3 ml culture) it was 2.2 U/mg protein; in assay [10] (60 ml culture), 0.7 U/mg protein. Besides, the Km in assay [10] (3 ml culture) was 14.3 mM; in assay [10] (60 ml culture) it was 16.6 mM.
